# Data reported in patent US12053506B2, “Romo1-derived antimicrobial peptides and variants thereof” (priority 2019, dated 2024).
# Read-outs that look alike come from different tables or passages of the source. Non-standard residues stand in square brackets, D forms with d. Residues, ends and D or L forms follow the SMILES beside them. No end group written: not given here. Nle = CCCC[C@H](N)C(=O)O
# B1: MPVAVGPYGQSQPSCFDRVKMGFVMGCAVGMAAGALFGTFSCLRIGMRGRELMGGIGKTMMQSGGTFGTFMAIGMGIRC (protein)
# chain: MPVAVGPYGQSQPSCFDRVKMGFVMGCAVGMAAGALFGTFSCLRIGMRGRELMGGIGKTMMQSGGTFGTFMAIGMGIRC
# modifications: Homo sapiens Romo1
# Legend:
# CRPA = assay: MBC, evaluation of antibacterial activities of KU-5878 variants; type: cell-based; conditions: Tables 11-15, no unit printed
# Experimental: Variants were prepared by deleting one amino acid from the amino acid sequence of KU-5878 (SEQ ID NO: 13), and the antibacterial activities thereof were evaluated.
# Variants were prepared by deleting two or more amino acids from the amino acid sequence of KU-5878 (SEQ ID NO: 13), and the antibacterial activities thereof were evaluated.
# One amino acid in the amino acid sequence of KU-5878 (SEQ ID NO: 13) was substituted, and the antibacterial activities of the peptides were evaluated.
# Substitutions of Q62K, S63K and T66K were sequentially added to the amino acid sequence of KU-5878-T59K, and the antibacterial activities of the peptides were evaluated.
# An amino acid repeat sequence was added to the C-terminus of KU-5878, and the antibacterial activities of the peptides were evaluated. According to Table 15 below, when the R (arginine) repeat sequence or K (lysine) sequence was added to the C-terminus of KU-5878, the antibacterial activity of the peptide increased.
# [1] = test system: Pseudomonas aeruginosa (ATCC 27853); type: cell-based; conditions: for MBC Pseudomonas aeruginosa: Tables 11-15, no unit printed
# Description: (§1) Romo1 protein comprises two α-helices. The present inventors synthesized the α-helix 2 region having both hydrophilicity and hydrophobicity, and evaluated the antibacterial activity thereof using minimum bactericidal concentration (MBC) assay. The α-helix 2 region was named KU-5279 (the 52-79 amino acid region of Romo1 protein). Then, in order to identify peptides that are beneficial for human application and have excellent antibacterial activity, the present inventors synthesized several peptides comprising a sequence of contiguous amino acids starting at any amino acid selected from the 52-79 amino acid region of Romo1 protein, and comparatively evaluated the antibacterial activities of the peptides by minimum bactericidal concentration assay (See Table 1 below for information on each peptide). Evaluation of the antibacterial activity of each peptide by minimum bactericidal concentration assay was specifically performed as follows. First, each of Pseudomonas aeruginosa (ATCC 27853) and Staphylococcus aureus (ATCC 29213) was cultured in 3% (w/v) TSB (Tryptic Soy Broth) liquid medium at 37° C. and 200 rpm for 4 hours, and then further cultured under the same conditions for 3 hours to a concentration of 5×10^6 CFU/ml. Strain solutions were prepared by diluting each of the further cultured strains with SP (sodium phosphate; 10 mM sodium phosphate, 1% TSB) buffer to a final concentration of 2×10^5 CFU/ml. Then, each peptide at varying concentrations (0 μg/ml to 300 μg/ml) was dispensed into each well of a 96-well microplate, and 100 μl (1×10^5 CFU/ml) of each of the prepared strain solutions was added thereto, mixed therewith, and allowed to react with the peptide in an incubator at 37° C. for 1 hour. In addition, 30 g/L of TS (tryptic soy) and 15 g/L of agar were dissolved in distilled water and sterilized, and then 25 ml of the solution was poured onto a 100 mm round plate and solidified at room temperature for one day or more, thereby preparing a TS agar plate. 10 μl of each reaction solution of the peptide and the strain was plated on the TS agar plate at a constant size, and incubated in an incubator at 37° C. for 18 hours, and then colony formation on the plate was checked. The minimum bactericidal concentration was defined as the minimum concentration of the peptide at which no colony was formed, and the experimental results are shown in Table 1 below.
# [2] = test system: Staphylococcus aureus (ATCC 29213); type: cell-based; conditions: for MBC Staphylococcus aureus: Tables 11-15, no unit printed
# Description: as §1
# [3] = test system: methicillin-resistant Staphylococcus aureus (ATCC 33591); conditions: Tables 11-15, no unit printed
# Experimental: First, each of Pseudomonas aeruginosa (ATCC 27853) and Staphylococcus aureus (ATCC 29213) was cultured in 3% (w/v) TSB (Tryptic Soy Broth) liquid medium at 37° C. and 200 rpm for 4 hours, and then further cultured under the same conditions for 3 hours to a concentration of 5×10^6 CFU/ml. Strain solutions were prepared by diluting each of the further cultured strains with SP (sodium phosphate; 10 mM sodium phosphate, 1% TSB) buffer to a final concentration of 2×10^5 CFU/ml.
# (§2) Then, each peptide at varying concentrations (0 μg/ml to 300 μg/ml) was dispensed into each well of a 96-well microplate, and 100 μl (1×10^5 CFU/ml) of each of the prepared strain solutions was added thereto, mixed therewith, and allowed to react with the peptide in an incubator at 37° C. for 1 hour.
# In addition, 30 g/L of TS (tryptic soy) and 15 g/L of agar were dissolved in distilled water and sterilized, and then 25 ml of the solution was poured onto a 100 mm round plate and solidified at room temperature for one day or more, thereby preparing a TS agar plate. 10 μl of each reaction solution of the peptide and the strain was plated on the TS agar plate at a constant size, and incubated in an incubator at 37° C. for 18 hours, and then colony formation on the plate was checked.
# Specifically, each type of bacteria was cultured in 3% (w/v) TSB (Tryptic Soy Broth) liquid medium at 37° C. and 200 rpm for 4 hours, and then further cultured under the same conditions for 3 hours to a concentration of 5×10^6 CFU/ml. Strain solutions were prepared by diluting each of the […] of 2×10^5 CFU/ml.
# as §2, with “Then, the KU-5878” for “Then, each”
# In addition, 10 μl of each reaction solution of the peptide and the strain was plated on the TS agar plate at a constant size, and incubated in an incubator at 37° C. for 18 hours, and then colony formation on the plate was checked.
Molecule,MBC CRPA (CRPA),"MBC value (μg/ml) against Pseudomonas aeruginosa ([1]; ATCC 27853, 1 h)",MBC Pseudomonas aeruginosa [1],"MBC value (μg/ml) against Staphylococcus aureus ([2]; ATCC 29213, 1 h)",MBC Staphylococcus aureus [2],MBC MRSA [3],other results
CCCC[C@H](NC(=O)CNC(=O)[C@@H](NC(=O)[C@H](C)NC(=O)[C@H](CCCC)NC(=O)[C@H](Cc1ccccc1)NC(=O)[C@@H](NC(=O)CNC(=O)[C@H](Cc1ccccc1)NC(=O)[C@@H](NC(=O)CNC(=O)CNC(=O)[C@H](CO)NC(=O)[C@H](CCC(N)=O)NC(=O)[C@H](CCCC)NC(=O)[C@H](CCCC)NC(=O)[C@@H](NC(=O)[C@@H](N)CCCCN)[C@@H](C)O)[C@@H](C)O)[C@@H](C)O)[C@@H](C)CC)C(=O)NCC(=O)N[C@H](C(=O)N[C@@H](CCCNC(=N)N)C(=O)O)[C@@H](C)CC [KU-5878-4Nle] (H-KT[Nle][Nle]QSGGTFGTF[Nle]AIG[Nle]GIR-OH; N-terminus and C-terminus assumed),100 µg/mL,110 µg/mL,110 µg/mL,90 µg/mL,90 µg/mL,100 µg/mL,–
CC[C@@H](C)[C@@H](NC(=O)CNC(=O)[C@@H](CCSC)NC(=O)CNC(=O)[C@H](NC(=O)[C@@H](C)NC(=O)[C@@H](CCSC)NC(=O)[C@@H](Cc1ccccc1)NC(=O)[C@H](NC(=O)CNC(=O)[C@@H](Cc1ccccc1)NC(=O)[C@H](NC(=O)CNC(=O)CNC(=O)[C@@H](CO)NC(=O)[C@@H](CCC(N)=O)NC(=O)[C@@H](CCSC)NC(=O)[C@@H](CCSC)NC(=O)[C@H](NC(=O)[C@H](N)CCCCN)[C@H](C)O)[C@H](C)O)[C@H](C)O)[C@H](C)CC)C(=O)N[C@H](CCCNC(=N)N)C(=O)O [KU-5878-D(all)] (H-[dK][dT][dM][dM][dQ][dS]GG[dT][dF]G[dT][dF][dM][dA][dI]G[dM]G[dI][dR]-OH; N-terminus and C-terminus assumed),–,–,–,–,–,–,"MBC (μg/ml) value against Pseudomonas aeruginosa ([1]; ATCC 27853, 1 h): 300 µg/mL; MBC (μg/ml) value against Staphylococcus aureus ([2]; ATCC 29213, 1 h): 300 µg/mL"
-TMMQSGGTFGTFMAIGMGIR [Peptide 5878-d58K],300 µg/mL,–,300 µg/mL,–,300 µg/mL,> 300 µg/mL,–
"CLRIGMRGRELMGGIGKTM [pCM19, reference compound]",–,300 µg/mL,–,250 µg/mL,–,–,–
GGIGKTMMQSGGTFGTFMAIGMGIRC [KU-5479],–,–,–,200 µg/mL,–,–,–
GKTMMQSGGTFGTFMAIGMGIR [KU-5778],–,300 µg/mL,–,280 µg/mL,–,–,–
GKTMMQSGGTFGTFMAIGMGIRC [KU-5779],–,280 µg/mL,–,250 µg/mL,–,–,–
K-MMQSGGTFGTFMAIGMGIR [Peptide 5878-d59T],150 µg/mL,–,150 µg/mL,–,150 µg/mL,150 µg/mL,–
KAMMQSGGTFGTFMAIGMGIR [KU-5878-T59A],130 µg/mL,–,150 µg/mL,–,120 µg/mL,140 µg/mL,–
KHMMQSGGTFGTFMAIGMGIR [KU-5878-T59H],> 300 µg/mL,–,> 300 µg/mL,–,> 300 µg/mL,> 300 µg/mL,–
KSMMQSGGTFGTFMAIGMGIR [KU-5878-T59S],> 300 µg/mL,–,> 300 µg/mL,–,> 300 µg/mL,> 300 µg/mL,–
"KT-MQS-GTFGTF--IG-GIR [5878-d60M, d64G, d71M, d72A, d75M]",200 µg/mL,–,200 µg/mL,–,200 µg/mL,200 µg/mL,–
"KT-MQS-GTFGTFM-IG-GIR [5878-d60M, d64G, d72A, d75M]",120 µg/mL,–,120 µg/mL,–,100 µg/mL,120 µg/mL,–
"KT-MQS-GTFGTFMAIGMGIR [5878-d60M, d64G]",100 µg/mL,–,100 µg/mL,–,100 µg/mL,110 µg/mL,–
"KT-MQSGGTFGTFM-IG-GIR [5878-d60M, d72A, d75M]",300 µg/mL,–,300 µg/mL,–,280 µg/mL,300 µg/mL,–
KT-MQSGGTFGTFMAIGMGIR [Peptide 5878-d60M],90 µg/mL,–,90 µg/mL,–,90 µg/mL,100 µg/mL,–
KTAMQSGGTFGTFMAIGMGIR [KU-5878-M60A],> 300 µg/mL,>300 µg/mL,> 300 µg/mL,>300 µg/mL,> 300 µg/mL,> 300 µg/mL,–
KTMM-SGGTFGTFMAIGMGIR [Peptide 5878-d62Q],100 µg/mL,–,100 µg/mL,–,90 µg/mL,100 µg/mL,–
KTMMASGGTFGTFMAIGMGIR [KU-5878-Q62A],> 300 µg/mL,–,> 300 µg/mL,–,> 300 µg/mL,> 300 µg/mL,–
KTMMHSGGTFGTFMAIGMGIR [KU-5878-Q62H],> 300 µg/mL,–,> 300 µg/mL,–,> 300 µg/mL,> 300 µg/mL,–
KTMMQ-GGTFGTFMAIGMGIR [Peptide 5878-d63S],200 µg/mL,–,200 µg/mL,–,200 µg/mL,200 µg/mL,–
KTMMQSGGTFGTFMAIGM [KU-5875],–,>300 µg/mL,–,>300 µg/mL,–,–,–
KTMMQSGGTFGTFMAIGMG [KU-5876],–,>300 µg/mL,–,>300 µg/mL,–,–,–
KTMMQSGGTFGTFMAIGMGI [KU-5877],–,>300 µg/mL,–,>300 µg/mL,–,–,–
KTMMQSGGTFGTFMAIGMGIR-NH2 [KU-5878-NH2],–,60 µg/mL,–,70 µg/mL,–,–,–
KTMMQSGGTFGTFMAIGMGIRC [KU-5879],–,150 µg/mL,–,–,–,–,–
B1,–,–,–,–,–,–,"MBC value (μg/ml) against Pseudomonas aeruginosa ([1]; ATCC 27853, 1 hour reaction at 37° C.): Insoluble; MBC value (μg/ml) against Staphylococcus aureus ([2]; ATCC 29213, 1 hour reaction at 37° C.): Insoluble"
